{"source": "patent US8729034B2", "about": "“Pharmaceutical composition having virucidal and spermicidal activity” (priority 2007, dated 2014)", "key": {"human spermatozoa": {"tested_on": "human spermatozoa", "assay": "Motility revival test (Experiment A)", "format": "cell-based", "conditions": "human spermatozoa treated at MEC, washed, incubated 30-60 minutes at 37 degree C", "procedure": "Human spermatozoa, treated with Ac-B at MEC and BWW control set were washed twice in pre-equilibrated BWW medium, re-suspended in fresh BWW medium and again incubated in a CO2-incubator at 37 degree C. for 30-60 minutes. At the end of the incubation, wet-preparation of spermatozoa was made from each set on a glass slide. The preparation was examined under a phase contrast microscope (at ×400) to note reversal of motility in 10 fields-of-view."}, "[1]": {"tested_on": "Salmonella typhimurium TA100", "assay": "Bacterial reverse mutation assay (MUTA-CHROMOPLATE kit)", "description": "Ac-B was examined for its ability to produce mutations/revert mutations in a bacterial reverse mutation assay using amino acid-requiring strain of Salmonella typhimurium (S. typhimurium) TA100 and the result was compared with a known mutagen (Na-azide). A commercial kit (The MUTA-CHROMOPLATE) from M/s Environmental Biodetection Products Inc. Ontario, Canada, was used. Suspensions of bacterial cells were exposed to the test substance in the presence and in the absence of an exogenous metabolic activation system. After 5 days of incubation, revertant colonies were detected by the change of colour from blue to yellow on solvent control plates. All yellow, partially yellow or turbid wells were scored as positive, while all purple wells were scored as negative. Number of positive wells for each plate was recorded, their number was counted and compared to that of spontaneous revertant colonies. The “Background” (i.e. no test material added) plate was used as reference for the level of spontaneous or background mutation of the assay organism. The statistical difference was determined using a table provided with the kit.\nScore of mutagenicity as per the set criteria of Muta-Chromoplate test kit."}}, "note": "Entries after “also recorded” stand apart in the source; their conditions may differ.", "data": [{"substance": "Acaciaside-B [Ac-B]", "values": [{"measurement": "Revival of motility after washing and re-incubation", "setting": "human spermatozoa", "value": "no sign for revival of motility; also recorded: irreversible"}, {"measurement": "Overall mutagenicity result", "setting": "[1]; Ames Test", "value": "non-mutagenic"}, {"measurement": "No. of '+' wells (Muta-Chromoplate score)", "setting": "[1]; Background = 20, Blank = 0", "value": 18}]}]}
